What is called MIC is the least concentration at which growth counts as inhibited. Read a high MIC as a need for much substance.

Consider seven compounds from ChEMBL document CHEMBL3046568, “Synthesis, antimicrobial and DNA cleavage studies of some 4-aryloxymethylcoumarins obtained by reaction of 4-bromomethylcoumarins with bidentate nucleophiles” (2012).

In assay [1] the test system is Aspergillus niger. The assay can be described thus: Induction of Aspergillus niger DNA cleavage at 50 ug after 2 hr by agarose gel electrophoresis.
Assay [2] relates to Staphylococcus aureus. Description: Induction of Staphylococcus aureus MTCC 3160 DNA cleavage at 50 ug after 2 hr by agarose gel electrophoresis.
The next assay has as its system Penicillium chrysogenum. Description: Antifungal activity against Penicillium chrysogenum after 3 to 4 days by serial dilution method. The class given is functional. The note with it: for MIC: Penicillium chrysogenum.
The subject of assay [3] is Escherichia coli. Description: Antibacterial activity against Escherichia coli MTCC 1089 after 24 hr by disk diffusion method. In kind it is functional. The settings on record: for MIC: Escherichia coli, MTCC 1089, 24 h. (In general: A growth-free zone around the sample is the usual read-out of agar diffusion tests.)
In assay [4] the test system is Escherichia coli. Description: Induction of Escherichia coli MTCC 1089 DNA cleavage at 50 ug after 2 hr by agarose gel electrophoresis.
The subject of a further assay is Fusarium oxysporum. Description: Antifungal activity against Fusarium oxysporum after 3 to 4 days by serial dilution method. In kind it is functional. The note with it: for MIC: Fusarium oxysporum.
The subject of assay [5] is Staphylococcus aureus. Description: Antibacterial activity against Staphylococcus aureus MTCC 3160 after 24 hr by disk diffusion method. In kind it is functional. The settings on record: for MIC: Staphylococcus aureus, MTCC 3160, 24 h.
The test system of assay [6] is Aspergillus niger. Description: Antifungal activity against Aspergillus niger after 3 to 4 days by serial dilution method. In kind it is functional. The settings on record: for MIC: Aspergillus niger.
The test system of a further assay is Aspergillus fumigatus. Description: Antifungal activity against Aspergillus fumigatus after 3 to 4 days by serial dilution method. The class given is functional. The settings on record: for MIC: Aspergillus fumigatus.
Another assay deals with Enterococcus faecalis. Description: Antibacterial activity against Enterococcus faecalis MTCC 3382 after 24 hr by disk diffusion method. In kind it is functional. The note with it: for MIC: Enterococcus faecalis, MTCC 3382, 24 h.
A further assay concerns Pseudomonas aeruginosa. Description: Antibacterial activity against Pseudomonas aeruginosa MTCC 1034 after 24 hr by disk diffusion method. The class given is functional. The note with it: for MIC: Pseudomonas aeruginosa, MTCC 1034, 24 h.
Another assay concerns Bacillus subtilis. The assay can be described thus: Antibacterial activity against Bacillus subtilis MTCC 297 after 24 hr by disk diffusion method. In kind it is functional. The note with it: for MIC: Bacillus subtilis, MTCC 297, 24 h.
A further assay relates to Klebsiella pneumoniae. The assay can be described thus: Antibacterial activity against Klebsiella pneumoniae MTCC 3384 after 24 hr by disk diffusion method. The note with it: for MIC: Klebsiella pneumoniae, MTCC 3384, 24 h. The class given is functional.
In the next assay the test system is Mucor fuscus. Description: Antifungal activity against Mucor fuscus after 3 to 4 days by serial dilution method. In kind it is functional. The settings on record: for MIC: Mucor fuscus.
The test system of the next assay is Candida albicans. Description: Antifungal activity against Candida albicans after 3 to 4 days by serial dilution method. The class given is functional. The note with it: for MIC: Candida albicans.

The structures appear in SMILES notation. Converted amounts (≈) assume the structure as drawn. The source made the active and inactive calls. No cut-off for these calls is given here.

Regarding `O=c1cc(COc2cccc(O)c2)c2c(ccc3ccccc32)o1`, the result in the assay on Aspergillus niger [1], in the assay on Staphylococcus aureus [2] and in the assay on Escherichia coli [4] was inactive. In addition, the “inhibition zone (IZ)” value with Penicillium chrysogenum came out at 16 mm; with Escherichia coli [3], 12 mm; in the assay with Fusarium oxysporum it was 12 mm; in the assay with Staphylococcus aureus [5], 11 mm; with Aspergillus niger [6], 17 mm; with Aspergillus fumigatus, 15 mm. Besides, the “inhibition zone (IZ)” value was determined as 14 mm with Enterococcus faecalis; 18 mm in the assay with Pseudomonas aeruginosa; 12 mm in the assay on Bacillus subtilis; 15 mm with Klebsiella pneumoniae; 13 mm in the assay on Mucor fuscus; 14 mm with Candida albicans. For the same compound, the MIC was 25 µg/mL (≈ 78.5 µM) with Penicillium chrysogenum; 25 µg/mL (≈ 78.5 µM) in the assay with Escherichia coli [3]; 25 µg/mL (≈ 78.5 µM) with Fusarium oxysporum; 25 µg/mL (≈ 78.5 µM) in the assay with Staphylococcus aureus [5]; 12.5 µg/mL (≈ 39.3 µM) with Aspergillus niger [6]; 12.5 µg/mL (≈ 39.3 µM) with Aspergillus fumigatus. Also, the MIC is 12.5 µg/mL (≈ 39.3 µM) against Enterococcus faecalis; 12.5 µg/mL (≈ 39.3 µM) against Pseudomonas aeruginosa; 25 µg/mL (≈ 78.5 µM) against Bacillus subtilis; 12.5 µg/mL (≈ 39.3 µM) in the assay with Klebsiella pneumoniae; 25 µg/mL (≈ 78.5 µM) against Mucor fuscus; 12.5 µg/mL (≈ 39.3 µM) against Candida albicans.
For the compound `CCN(CC)c1cccc(OCc2cc(=O)oc3cc(C)ccc23)c1`, the outcome with Aspergillus niger [1], in the assay on Staphylococcus aureus [2] and in the assay with Escherichia coli [4] was inactive. Further, the “inhibition zone (IZ)” value in the assay with Penicillium chrysogenum came out at 18 mm; in the assay on Escherichia coli [3], 9 mm; in the assay with Fusarium oxysporum it was 7 mm; in the assay on Staphylococcus aureus [5] it was 16 mm; in the assay with Aspergillus niger [6] it was 18 mm; with Aspergillus fumigatus, 15 mm. Further, the “inhibition zone (IZ)” value in the assay with Enterococcus faecalis is 15 mm; in the assay on Pseudomonas aeruginosa, 16 mm; in the assay on Bacillus subtilis it was 13 mm; in the assay with Klebsiella pneumoniae it was 14 mm; with Mucor fuscus it was 16 mm; with Candida albicans it was 8 mm. The MIC with Penicillium chrysogenum was 12.5 µg/mL (≈ 37 µM); in the assay on Escherichia coli [3] it was 50 µg/mL (≈ 148 µM); against Fusarium oxysporum, 50 µg/mL (≈ 148 µM); in the assay on Staphylococcus aureus [5], 12.5 µg/mL (≈ 37 µM); in the assay on Aspergillus niger [6], 12.5 µg/mL (≈ 37 µM); with Aspergillus fumigatus, 12.5 µg/mL (≈ 37 µM). The MIC with Enterococcus faecalis turned out to be 6.25 µg/mL (≈ 18.5 µM); against Pseudomonas aeruginosa it was 12.5 µg/mL (≈ 37 µM); in the assay with Bacillus subtilis it was 12.5 µg/mL (≈ 37 µM); with Klebsiella pneumoniae it was 12.5 µg/mL (≈ 37 µM); with Mucor fuscus it was 12.5 µg/mL (≈ 37 µM); in the assay on Candida albicans, 25 µg/mL (≈ 74.1 µM).
As for `CCN(CC)c1cccc(OCc2cc(=O)oc3ccc4ccccc4c23)c1`, the result in the assay on Aspergillus niger [1], with Staphylococcus aureus [2] and with Escherichia coli [4] was inactive. For the same compound, the “inhibition zone (IZ)” value in the assay with Penicillium chrysogenum amounted to 17 mm; in the assay with Escherichia coli [3], 14 mm; in the assay on Fusarium oxysporum, 14 mm; in the assay with Staphylococcus aureus [5], 13 mm; in the assay with Aspergillus niger [6], 17 mm; with Aspergillus fumigatus, 14 mm. Further, the “inhibition zone (IZ)” value with Enterococcus faecalis was found to be 14 mm; in the assay on Pseudomonas aeruginosa, 17 mm; in the assay with Bacillus subtilis it was 11 mm; with Klebsiella pneumoniae it was 15 mm; in the assay on Mucor fuscus, 14 mm; with Candida albicans it was 13 mm. Further, the MIC with Penicillium chrysogenum was determined as 12.5 µg/mL (≈ 33.5 µM); in the assay with Escherichia coli [3], 12.5 µg/mL (≈ 33.5 µM); in the assay with Fusarium oxysporum, 25 µg/mL (≈ 66.9 µM); against Staphylococcus aureus [5], 12.5 µg/mL (≈ 33.5 µM); against Aspergillus niger [6], 12.5 µg/mL (≈ 33.5 µM); in the assay with Aspergillus fumigatus it was 12.5 µg/mL (≈ 33.5 µM). Moreover, the MIC is 12.5 µg/mL (≈ 33.5 µM) with Enterococcus faecalis; 12.5 µg/mL (≈ 33.5 µM) in the assay with Pseudomonas aeruginosa; 25 µg/mL (≈ 66.9 µM) in the assay with Bacillus subtilis; 12.5 µg/mL (≈ 33.5 µM) in the assay on Klebsiella pneumoniae; 25 µg/mL (≈ 66.9 µM) against Mucor fuscus; 12.5 µg/mL (≈ 33.5 µM) against Candida albicans.
Consider `Cc1ccc2c(COc3cccc(O)c3)cc(=O)oc2c1`, for which the result with Aspergillus niger [1], in the assay with Staphylococcus aureus [2] and in the assay on Escherichia coli [4] was inactive. The “inhibition zone (IZ)” value in the assay on Penicillium chrysogenum amounted to 18 mm; in the assay with Escherichia coli [3], 9 mm; in the assay on Fusarium oxysporum, 9 mm; in the assay with Staphylococcus aureus [5], 14 mm; in the assay on Aspergillus niger [6], 19 mm; in the assay with Aspergillus fumigatus it was 16 mm. Besides, the “inhibition zone (IZ)” value amounted to 16 mm with Enterococcus faecalis; 16 mm with Pseudomonas aeruginosa; 14 mm in the assay with Bacillus subtilis; 13 mm in the assay on Klebsiella pneumoniae; 14 mm in the assay on Mucor fuscus; 9 mm in the assay on Candida albicans. The MIC worked out at 12.5 µg/mL (≈ 44.3 µM) against Penicillium chrysogenum; 50 µg/mL (≈ 177 µM) with Escherichia coli [3]; 50 µg/mL (≈ 177 µM) with Fusarium oxysporum; 12.5 µg/mL (≈ 44.3 µM) against Staphylococcus aureus [5]; 6.25 µg/mL (≈ 22.1 µM) in the assay with Aspergillus niger [6]; 12.5 µg/mL (≈ 44.3 µM) in the assay on Aspergillus fumigatus. Moreover, the MIC in the assay with Enterococcus faecalis is 12.5 µg/mL (≈ 44.3 µM); with Pseudomonas aeruginosa it was 12.5 µg/mL (≈ 44.3 µM); in the assay with Bacillus subtilis it was 12.5 µg/mL (≈ 44.3 µM); in the assay with Klebsiella pneumoniae, 12.5 µg/mL (≈ 44.3 µM); against Mucor fuscus it was 25 µg/mL (≈ 88.6 µM); against Candida albicans it was 25 µg/mL (≈ 88.6 µM).
`CC(=O)Nc1cccc(OCc2cc(=O)oc3c2ccc2ccccc23)c1`: the result in the assay on Aspergillus niger [1], in the assay with Staphylococcus aureus [2] and with Escherichia coli [4] was inactive. Also, the “inhibition zone (IZ)” value in the assay on Penicillium chrysogenum worked out at 18 mm; with Escherichia coli [3] it was 13 mm; with Fusarium oxysporum, 11 mm; in the assay on Staphylococcus aureus [5], 12 mm; with Aspergillus niger [6], 19 mm; in the assay on Aspergillus fumigatus it was 17 mm. Further, the “inhibition zone (IZ)” value in the assay with Enterococcus faecalis was determined as 12 mm; in the assay with Pseudomonas aeruginosa it was 19 mm; with Bacillus subtilis, 13 mm; with Klebsiella pneumoniae it was 15 mm; in the assay with Mucor fuscus it was 16 mm; with Candida albicans, 16 mm. In addition, the MIC in the assay on Penicillium chrysogenum was 12.5 µg/mL (≈ 34.8 µM); against Escherichia coli [3], 25 µg/mL (≈ 69.6 µM); with Fusarium oxysporum, 50 µg/mL (≈ 139 µM); against Staphylococcus aureus [5], 25 µg/mL (≈ 69.6 µM); in the assay on Aspergillus niger [6], 6.25 µg/mL (≈ 17.4 µM); with Aspergillus fumigatus, 12.5 µg/mL (≈ 34.8 µM). Besides, the MIC against Enterococcus faecalis is 25 µg/mL (≈ 69.6 µM); in the assay with Pseudomonas aeruginosa, 6.25 µg/mL (≈ 17.4 µM); against Bacillus subtilis it was 12.5 µg/mL (≈ 34.8 µM); in the assay with Klebsiella pneumoniae, 12.5 µg/mL (≈ 34.8 µM); in the assay on Mucor fuscus, 12.5 µg/mL (≈ 34.8 µM); in the assay with Candida albicans it was 12.5 µg/mL (≈ 34.8 µM).
As for `O=C(O)c1cn(C2CC2)c2cc(N3CCNCC3)c(F)cc2c1=O` [CIPROFLOXACIN], the “inhibition zone (IZ)” value in the assay with Escherichia coli [3] came to 18 mm; with Staphylococcus aureus [5], 21 mm; in the assay with Enterococcus faecalis, 23 mm; in the assay on Pseudomonas aeruginosa, 25 mm; with Bacillus subtilis it was 20 mm; in the assay with Klebsiella pneumoniae it was 21 mm. Further, the MIC worked out at 12.5 µg/mL (≈ 37.7 µM) against Escherichia coli [3], 6.25 µg/mL (≈ 18.9 µM) with Enterococcus faecalis, 6.25 µg/mL (≈ 18.9 µM) against Bacillus subtilis and 6.25 µg/mL (≈ 18.9 µM) against Klebsiella pneumoniae.
Regarding `OC(Cn1cncn1)(Cn1cncn1)c1ccc(F)cc1F` [FLUCONAZOLE], the “inhibition zone (IZ)” value in the assay with Penicillium chrysogenum came to 23 mm; with Fusarium oxysporum, 17 mm; in the assay on Aspergillus niger [6] it was 24 mm; in the assay with Aspergillus fumigatus, 22 mm; in the assay on Mucor fuscus, 22 mm; in the assay with Candida albicans, 20 mm. For the same compound, the MIC stood at 6.25 µg/mL (≈ 20.4 µM) against Penicillium chrysogenum; 12.5 µg/mL (≈ 40.8 µM) in the assay with Fusarium oxysporum; 6.25 µg/mL (≈ 20.4 µM) in the assay with Aspergillus niger [6]; 6.25 µg/mL (≈ 20.4 µM) against Aspergillus fumigatus; 6.25 µg/mL (≈ 20.4 µM) with Mucor fuscus; 6.25 µg/mL (≈ 20.4 µM) against Candida albicans.
